From DBAASP
≈ marks a conversion by molar mass, not a printed value. Each block holds one molecule with its values, some of them ahead of it.

What was measured:
Assay in all cases: ≥ marks a high value that may be exact or a test limit, other limits are often not marked, values filed in µg/mL are converted to µM
[1] = system: Pseudomonas aeruginosa Ps4
[2] = system: Escherichia coli UB1005
[3] = system: Staphylococcus epidermidis
[4] = system: Enterococcus faecalis ATCC 29212
[5] = system: Staphylococcus aureus ATCC 25923
[6] = system: Salmonella enterica serovar Typhimurium
[7] = system: Candida albicans
[8] = system: Pseudomonas aeruginosa H103
[9] = system: Pseudomonas aeruginosa LES400
[10] = system: Escherichia coli ESBL 63103
[11] = system: Enterococcus faecium mic80
[12] = system: Pseudomonas aeruginosa 213
[13] = system: Staphylococcus aureus C623
[14] = system: Candida albicans C627
[15] = system: Pseudomonas syringae pv. tomato DC3000
[16] = system: Pectobacterium carotovorum subsp. carotovorum DSM 30168
[17] = system: Xanthomonas vesicatoria DSM 50861
[18] = system: Pseudomonas syringae pv. syringae DSM 10604
[19] = system: Pseudomonas corrugata DSM 7228
[20] = system: Clavibacter michiganensis subsp. michiganensis DSM 46294
[21] = system: Escherichia coli ATCC 25922
[22] = system: Yersinia enterocolitica
[23] = system: Staphylococcus aureus ATCC 43300
[24] = system: Staphylococcus aureus ATCC 29213
[25] = system: Salmonella sp.
[26] = system: Salmonella enterica subsp. enterica serovar Enteritidis
[27] = system: Escherichia coli
[28] = system: Micrococcus luteus A270
[29] = system: Candida albicans MDM8
[30] = system: Escherichia coli SBS 363

SMILES: CC[C@H](C)[C@H](N)C(=O)N[C@@H](CCCN=C(N)N)C(=O)N[C@@H](CCSC)C(=O)N[C@@H](CCCN=C(N)N)C(=O)N[C@H](C(=O)N[C@@H](CCCN=C(N)N)C(=O)N[C@H](C(=O)N[C@@H](CC(C)C)C(=O)N[C@@H](CC(C)C)C(=O)O)C(C)C)[C@@H](C)CC [IRMRIRVLL]
MIC [2]: 2 µM (≈ 2.34 µg/mL)
MIC [3]: 2 µM (≈ 2.34 µg/mL)
MIC [4]: 16 µM (≈ 18.7 µg/mL)
MIC [5]: 4 µM (≈ 4.68 µg/mL)
MIC [6]: 4 µM (≈ 4.68 µg/mL)
MIC [7]: 16 µM (≈ 18.7 µg/mL)
MIC [8]: 16 µM (≈ 18.7 µg/mL)

SMILES: CC[C@H](C)[C@H](NC(=O)[C@H](CC(C)C)NC(=O)[C@H](CCSC)NC(=O)[C@H](CCCN=C(N)N)NC(=O)[C@H](Cc1c[nH]c2ccccc12)NC(=O)[C@H](Cc1c[nH]c2ccccc12)NC(=O)[C@H](CCCCN)NC(=O)[C@H](Cc1ccccc1)NC(=O)[C@@H](N)CCCCN)C(=O)O [KFKWWRMLI]
MIC [2]: 0.6 µM (≈ 0.785 µg/mL)
MIC [3]: 0.6 µM (≈ 0.785 µg/mL)
MIC [4]: 2.3 µM (≈ 3.01 µg/mL)
MIC [5]: 1.2 µM (≈ 1.57 µg/mL)
MIC [6]: 2.3 µM (≈ 3.01 µg/mL)
MIC [7]: 4.6 µM (≈ 6.02 µg/mL)
MIC [8]: 4.6 µM (≈ 6.02 µg/mL)

SMILES: NCCCC[C@H](NC(=O)[C@@H](N)CCCCN)C(=O)N[C@@H](CCCN=C(N)N)C(=O)N[C@@H](Cc1c[nH]c2ccccc12)C(=O)N[C@@H](Cc1c[nH]c2ccccc12)C(=O)N[C@@H](Cc1c[nH]c2ccccc12)C(=O)N[C@@H](Cc1c[nH]c2ccccc12)C(=O)N[C@@H](Cc1c[nH]c2ccccc12)C(=O)N[C@@H](CCCN=C(N)N)C(=O)O [KKRWWWWWR]
MIC [9]: 21.1 µM (≈ 32 µg/mL)
MIC [10]: 5.27 µM (≈ 8 µg/mL)
MIC [5]: 2.64 µM (≈ 4 µg/mL)
MIC [11]: 5.27 µM (≈ 8 µg/mL)
MIC [8]: 2.64 µM (≈ 4 µg/mL)
MIC [12]: 21.1 µM (≈ 32 µg/mL)
MIC [13]: 1.32 µM (≈ 2 µg/mL)
MIC [14]: 2.64 µM (≈ 4 µg/mL)

SMILES: NCCCC[C@H](NC(=O)[C@H](Cc1c[nH]c2ccccc12)NC(=O)[C@@H](N)CCCCN)C(=O)N[C@@H](CCCN=C(N)N)C(=O)N[C@@H](Cc1c[nH]c2ccccc12)C(=O)N[C@@H](Cc1c[nH]c2ccccc12)C(=O)N[C@@H](Cc1c[nH]c2ccccc12)C(=O)N[C@@H](Cc1ccccc1)C(=O)N[C@@H](CCCN=C(N)N)C(=O)O [KWKRWWWFR]
MIC [9]: ≥ 43.3 µM
MIC [10]: 10.8 µM (≈ 16 µg/mL)
MIC [5]: 21.6 µM (≈ 32 µg/mL)
MIC [11]: 21.6 µM (≈ 32 µg/mL)
MIC [8]: 21.6 µM (≈ 32 µg/mL)
MIC [12]: ≥ 86.6 µM
MIC [13]: 10.8 µM (≈ 16 µg/mL)
MIC [14]: 21.6 µM (≈ 32 µg/mL)

SMILES: CC[C@H](C)[C@H](NC(=O)[C@@H](N)CCCN=C(N)N)C(=O)N[C@@H](Cc1c[nH]c2ccccc12)C(=O)N[C@@H](CCCCN)C(=O)N[C@@H](CCCN=C(N)N)C(=O)N[C@@H](Cc1c[nH]c2ccccc12)C(=O)N[C@@H](Cc1c[nH]c2ccccc12)C(=O)N[C@@H](Cc1ccccc1)C(=O)N[C@@H](CCCN=C(N)N)C(=O)O [RIWKRWWFR]
MIC [9]: ≥ 89.3 µM
MIC [10]: ≥ 44.6 µM
MIC [5]: 44.6 µM (≈ 64 µg/mL)
MIC [11]: ≥ 44.6 µM
MIC [8]: ≥ 89.3 µM
MIC [12]: ≥ 89.3 µM
MIC [13]: 22.3 µM (≈ 32 µg/mL)
MIC [14]: ≥ 89.3 µM

SMILES: CC[C@H](C)[C@H](NC(=O)[C@H](CC(C)C)NC(=O)[C@H](CCCN=C(N)N)NC(=O)[C@H](CCCCN)NC(=O)[C@@H](NC(=O)[C@H](CC(C)C)NC(=O)[C@H](CCCCN)NC(=O)[C@H](CCCCN)NC(=O)[C@H](CCCN=C(N)N)NC(=O)[C@H](CCCCN)NC(=O)[C@H](CCCCN)NC(=O)[C@@H](N)CCCN=C(N)N)[C@@H](C)CC)C(N)=O [RKKRKKLIKRLI]
MIC [15]: 6.33 µM (≈ 9.99 µg/mL)
MIC [16]: 6.33 µM (≈ 9.99 µg/mL)
MIC [17]: 3.16 µM (≈ 5 µg/mL)
MIC [18]: 0.0633 µM (≈ 0.1 µg/mL)
MIC [19]: 0.316 µM (≈ 0.5 µg/mL)
MIC [20]: 3.16 µM (≈ 5 µg/mL)

SMILES: CC[C@H](C)[C@H](NC(=O)[C@H](CCC(N)=O)NC(=O)[C@@H](N)CCCN=C(N)N)C(=O)N[C@H](C(=O)N[C@@H](CCCN=C(N)N)C(=O)N[C@@H](CCCN=C(N)N)C(=O)N[C@@H](CCSC)C(=O)N[C@@H](Cc1c[nH]c2ccccc12)C(=O)N[C@@H](CCCN=C(N)N)C(N)=O)[C@@H](C)CC [RQIIRRMWR]
MIC [21]: > 38 µM
MIC [22]: ≥ 38 µM
MIC [23]: > 38 µM
MIC [24]: > 38 µM
MIC [25]: ≥ 38 µM
MIC [26]: ≥ 38 µM
MIC [27]: 19 µM (≈ 25 µg/mL)

SMILES: CC[C@H](C)[C@H](NC(=O)[C@H](CC(C)C)NC(=O)[C@H](CO)NC(=O)[C@H](CC(C)C)NC(=O)[C@H](CC(C)C)NC(=O)[C@@H](N)CO)C(=O)N[C@@H](CCCN=C(N)N)C(=O)N[C@@H](CCCCN)C(=O)N[C@@H](Cc1ccccc1)C(=O)N[C@@H](Cc1ccccc1)C(=O)N[C@H](C(N)=O)[C@@H](C)O [SLLSLIRKFFT]
MIC [28]: 0.39 µM (≈ 0.516 µg/mL)
MIC [29]: 1.56 µM (≈ 2.06 µg/mL)
MIC [30]: 1.56 µM (≈ 2.06 µg/mL)

Further lines, results first:

MIC [1]: ≥ 155 µM
SMILES: CC[C@H](C)[C@H](NC(=O)[C@H](CC(N)=O)NC(=O)[C@H](CCCN=C(N)N)NC(=O)[C@H](CCC(N)=O)NC(=O)[C@H](Cc1c[nH]c2ccccc12)NC(=O)[C@H](Cc1ccccc1)NC(=O)[C@@H](N)CS)C(=O)N[C@@H](CCCN=C(N)N)C(=O)N[C@@H](CCCCN)C(=O)N[C@H](C(=O)N[C@@H](CCCN=C(N)N)C(=O)N[C@@H](CS)C(N)=O)C(C)C [CFWQRNIRKVRC]

MIC [1]: ≥ 182 µM
SMILES: CC[C@H](C)[C@H](NC(=O)[C@H](CC(N)=O)NC(=O)[C@H](CCCN=C(N)N)NC(=O)[C@@H]1CCCN1C(=O)[C@H](Cc1c[nH]c2ccccc12)NC(=O)[C@@H](N)Cc1ccccc1)C(=O)N[C@@H](CCCN=C(N)N)C(=O)N[C@@H](CCCCN)C(=O)N[C@H](C(=O)N[C@@H](CCCN=C(N)N)C(N)=O)C(C)C [FWPRNIRKVR]

MIC [1]: ≥ 250 µM
SMILES: CC[C@H](C)[C@H](NC(=O)[C@H](CC(N)=O)NC(=O)[C@H](CCCN=C(N)N)NC(=O)[C@H](CCC(N)=O)NC(=O)[C@H](Cc1c[nH]c2ccccc12)NC(=O)[C@@H](N)Cc1ccccc1)C(=O)N[C@@H](CCCN=C(N)N)C(=O)N[C@@H](Cc1ccccc1)C(=O)N[C@@H](CCCN=C(N)N)C(=O)N[C@@H](CCCN=C(N)N)C(N)=O [FWQRNIRFRR]

MIC [1]: ≥ 156 µM
SMILES: CC[C@H](C)[C@H](NC(=O)[C@H](CCCN=C(N)N)NC(=O)[C@@H](NC(=O)[C@H](CC(N)=O)NC(=O)[C@H](CCCN=C(N)N)NC(=O)[C@H](CCC(N)=O)NC(=O)[C@H](Cc1c[nH]c2ccccc12)NC(=O)[C@H](Cc1ccccc1)NC(=O)[C@@H](N)CCCN=C(N)N)[C@@H](C)CC)C(=O)N[C@@H](CCCN=C(N)N)C(=O)N[C@@H](CCCN=C(N)N)C(N)=O [RFWQRNIRIRR]

MIC [1]: ≥ 154 µM
SMILES: CC[C@H](C)[C@H](NC(=O)[C@H](CC(N)=O)NC(=O)[C@H](CCCN=C(N)N)NC(=O)[C@H](CCC(N)=O)NC(=O)[C@H](Cc1c[nH]c2ccccc12)NC(=O)[C@H](Cc1ccccc1)NC(=O)[C@@H](N)CCCN=C(N)N)C(=O)N[C@@H](CCCN=C(N)N)C(=O)N[C@@H](CCCCN)C(=O)N[C@@H](Cc1ccc(O)cc1)C(=O)N[C@@H](CCCN=C(N)N)C(N)=O [RFWQRNIRKYR]

MIC [21]: 7.96 µM (≈ 12.5 µg/mL)
MIC [22]: 3.98 µM (≈ 6.25 µg/mL)
MIC [23]: 31.8 µM (≈ 50 µg/mL)
MIC [24]: > 31.8 µM
MIC [25]: 3.18 µM (≈ 5 µg/mL)
MIC [26]: 31.8 µM (≈ 50 µg/mL)
MIC [27]: 3.56 µM (≈ 5.59 µg/mL)
SMILES: CC[C@H](C)[C@H](NC(=O)[C@H](CCCCN)NC(=O)[C@@H](NC(=O)[C@H](CCC(N)=O)NC(=O)[C@@H](N)CCCN=C(N)N)[C@@H](C)CC)C(=O)N[C@@H](CCCN=C(N)N)C(=O)N[C@@H](CCCN=C(N)N)C(=O)N[C@@H](CCSC)C(=O)N[C@@H](CCCCN)C(=O)N[C@@H](Cc1c[nH]c2ccccc12)C(=O)N[C@@H](CCCN=C(N)N)C(N)=O [RQIKIRRMKWR]
